Our source for the IC50 and Ki values is ChEMBL document CHEMBL1909046, “DrugMatrix in vitro pharmacology data”.

Data set [1] deals with T1, 5-hydroxytryptamine receptor 2C (Homo sapiens, UniProt P28335).
T1 sequence (P28335 whole entry): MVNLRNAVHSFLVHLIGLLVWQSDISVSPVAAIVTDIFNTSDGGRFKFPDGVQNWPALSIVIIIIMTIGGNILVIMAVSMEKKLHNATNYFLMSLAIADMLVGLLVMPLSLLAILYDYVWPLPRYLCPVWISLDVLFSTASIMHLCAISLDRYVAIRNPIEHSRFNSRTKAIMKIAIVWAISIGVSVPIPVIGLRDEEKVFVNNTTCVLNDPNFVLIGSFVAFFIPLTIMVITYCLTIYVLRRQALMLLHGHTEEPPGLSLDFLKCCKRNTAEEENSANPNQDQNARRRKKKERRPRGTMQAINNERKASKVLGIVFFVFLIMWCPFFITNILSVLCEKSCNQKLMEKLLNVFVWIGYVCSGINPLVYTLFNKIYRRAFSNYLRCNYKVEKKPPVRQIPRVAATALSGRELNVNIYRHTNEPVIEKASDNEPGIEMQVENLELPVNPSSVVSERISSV
Description: DRUGMATRIX: Serotonin (5-Hydroxytryptamine) 5-HT2C radioligand binding (ligand: [3H] Mesulergine). It is filed as cell membranes, CHO-K1, Membrane. Conditions: Not Active = under 50% inhibition at 10 µM.

Data set [2] can be described thus: DRUGMATRIX: Leukotriene, BLT (LTB4) radioligand binding (ligand: [3H]LTB4). It is filed as cell membranes, Membrane. The following applies: u-937; Not Active = under 50% inhibition at 10 µM.
Data set [3] deals with Matrix metalloproteinase-9 (Homo sapiens, UniProt P14780). Briefly: biochemical. Type of data set: cell-based.
Chain of Matrix metalloproteinase-9 (P14780 whole entry): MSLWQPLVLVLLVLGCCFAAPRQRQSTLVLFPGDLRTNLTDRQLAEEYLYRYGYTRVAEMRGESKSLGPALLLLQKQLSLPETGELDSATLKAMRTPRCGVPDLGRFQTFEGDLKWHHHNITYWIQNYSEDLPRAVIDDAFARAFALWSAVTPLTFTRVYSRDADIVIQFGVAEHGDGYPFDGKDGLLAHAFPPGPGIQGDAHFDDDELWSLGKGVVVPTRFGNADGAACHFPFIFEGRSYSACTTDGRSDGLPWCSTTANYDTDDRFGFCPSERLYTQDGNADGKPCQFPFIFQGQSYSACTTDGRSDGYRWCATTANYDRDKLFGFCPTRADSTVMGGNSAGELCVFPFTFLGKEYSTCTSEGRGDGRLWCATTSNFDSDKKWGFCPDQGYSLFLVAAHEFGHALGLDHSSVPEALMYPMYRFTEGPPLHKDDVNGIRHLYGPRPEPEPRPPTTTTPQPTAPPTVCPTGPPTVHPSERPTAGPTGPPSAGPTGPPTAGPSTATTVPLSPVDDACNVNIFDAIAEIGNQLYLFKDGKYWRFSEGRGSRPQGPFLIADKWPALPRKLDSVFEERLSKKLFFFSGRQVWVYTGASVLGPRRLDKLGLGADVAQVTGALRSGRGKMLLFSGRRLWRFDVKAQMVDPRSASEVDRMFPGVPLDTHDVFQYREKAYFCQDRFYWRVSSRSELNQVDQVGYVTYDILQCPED
Another data set addresses Vasopressin V1a receptor (Homo sapiens, UniProt P37288). Type of data set: cell membranes, Membrane. The following applies: hek293.
The next data set has as its target T2, Cytochrome P450 2A6 (Homo sapiens, UniProt P11509). Further: in other assays of this panel Not Active means under 50% inhibition at 10 µM.
T2 sequence (P11509 whole entry): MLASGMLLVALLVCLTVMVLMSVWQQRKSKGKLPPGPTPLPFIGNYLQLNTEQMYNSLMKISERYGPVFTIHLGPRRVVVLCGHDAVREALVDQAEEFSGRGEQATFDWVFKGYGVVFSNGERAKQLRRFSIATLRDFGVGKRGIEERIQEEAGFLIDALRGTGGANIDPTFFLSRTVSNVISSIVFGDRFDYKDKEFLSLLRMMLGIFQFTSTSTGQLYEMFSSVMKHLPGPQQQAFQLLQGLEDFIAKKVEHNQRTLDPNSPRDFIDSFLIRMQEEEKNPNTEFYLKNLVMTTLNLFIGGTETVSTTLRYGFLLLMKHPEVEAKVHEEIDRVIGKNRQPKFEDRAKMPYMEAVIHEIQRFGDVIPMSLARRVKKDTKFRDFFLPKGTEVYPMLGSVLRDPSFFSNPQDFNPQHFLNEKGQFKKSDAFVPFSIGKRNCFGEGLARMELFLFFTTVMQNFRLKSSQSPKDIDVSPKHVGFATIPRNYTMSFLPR
Conditions: bti-tn-5b1-4.

The next data set concerns the target T3, Leukotriene C4 synthase (Cavia porcellus, UniProt A6XA80).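 Further: enzyme inhibition assay of leukotriene C4 synthase, using LTA4 as the substrate; in other assays of this panel Not Active means under 50% inhibition at 10 µM.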
T3 sequence (A6XA80 whole entry): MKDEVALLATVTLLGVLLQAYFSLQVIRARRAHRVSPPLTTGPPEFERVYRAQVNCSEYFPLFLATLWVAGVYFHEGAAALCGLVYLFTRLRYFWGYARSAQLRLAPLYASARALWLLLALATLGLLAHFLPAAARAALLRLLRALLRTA
Type of data set: tissue-based, Lung.

The nature of data set [4]: DRUGMATRIX: Glutamate, Kainate radioligand binding (ligand: [3H] Kainic acid). Conditions: Not Active = under 50% inhibition at 10 µM. It is filed as cell membranes, Rattus norvegicus, Wistar, Brain, Membrane.

Chain of Vasopressin V1a receptor (P37288 whole entry): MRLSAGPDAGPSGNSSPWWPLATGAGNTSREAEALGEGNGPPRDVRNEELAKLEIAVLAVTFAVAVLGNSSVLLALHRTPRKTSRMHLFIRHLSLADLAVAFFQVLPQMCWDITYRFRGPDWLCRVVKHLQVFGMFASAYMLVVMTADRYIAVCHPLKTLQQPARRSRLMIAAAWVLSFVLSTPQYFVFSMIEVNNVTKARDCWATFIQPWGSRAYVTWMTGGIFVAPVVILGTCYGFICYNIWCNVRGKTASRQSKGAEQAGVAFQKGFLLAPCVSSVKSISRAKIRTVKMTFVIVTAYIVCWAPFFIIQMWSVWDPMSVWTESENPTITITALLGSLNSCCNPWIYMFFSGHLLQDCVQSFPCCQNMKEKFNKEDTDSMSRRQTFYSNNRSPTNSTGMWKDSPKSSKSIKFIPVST

As usually defined, the IC50 is the concentration that gives 50% inhibition. The Ki is a dissociation constant, usually derived from enzyme kinetics or from competition with a known ligand. For `CC(C)NCC(O)c1ccc(NS(C)(=O)=O)cc1` (centres undefined) [SOTALOL], the IC50 result (in data set [1] (cho-k1); in data set [2]; in data set [3]; against Vasopressin V1a receptor; at Cytochrome P450 2A6; against Leukotriene C4 synthase) was “Not Active” each time. Further, the IC50 entry in data set [4] is “Not Active”. Besides, the Ki entry (in data set [2]; at Cytochrome P450 2A6; in data set [4]) was “Not Active” each time.

Take `O.O.O.O.O.O.[Cl-].[Cl-].[Sr+2]` [STRONTIUM CHLORIDE HEXAHYDRATE]: the IC50 result (in data set [1] (cho-k1); in data set [2]; in data set [3]; at Vasopressin V1a receptor; against Cytochrome P450 2A6; against Leukotriene C4 synthase) was “Not Active” in each case. Moreover, the IC50 entry in data set [4] was “Not Active”. Further, the Ki entry (in data set [2]; on Cytochrome P450 2A6; in data set [4]) was “Not Active” each time.

For `O=C1C(CC[S+]([O-])c2ccccc2)C(=O)N(c2ccccc2)N1c1ccccc1` (centres undefined) [SULFINPYRAZONE], the IC50 entry (in data set [1] (cho-k1); in data set [2]; in data set [3]; against Vasopressin V1a receptor; against Cytochrome P450 2A6; against Leukotriene C4 synthase) was “Not Active” each time. For the same molecule, the IC50 result in data set [4] is listed as “Not Active”. Moreover, the Ki entry (in data set [2]; at Cytochrome P450 2A6; in data set [4]) was “Not Active” each time.

For `NC(=O)N1C(=O)/C(=C(\O)c2cccs2)c2cc(Cl)ccc21` [TENIDAP], the IC50 result (in data set [1] (cho-k1); in data set [2]; in data set [3]; against Vasopressin V1a receptor; against Cytochrome P450 2A6; against Leukotriene C4 synthase) was “Not Active” throughout. Moreover, in data set [4], the IC50 result was “Not Active”. Further, the Ki entry (in data set [2]; at Cytochrome P450 2A6; in data set [4]) was “Not Active” throughout.

Take `COc1cc2nc(N3CCN(C(=O)C4CCCO4)CC3)nc(N)c2cc1OC` (centres undefined) [TERAZOSIN]: the IC50 result (in data set [1] (cho-k1); in data set [2]; in data set [3]; on Vasopressin V1a receptor; against Cytochrome P450 2A6; on Leukotriene C4 synthase) was “Not Active” each time. Besides, the IC50 result in data set [4] is on record as “Not Active”. The Ki result (in data set [2]; on Cytochrome P450 2A6; in data set [4]) was “Not Active” in each case.

`CN(C/C=C/C#CC(C)(C)C)Cc1cccc2ccccc12` [TERBINAFINE]: the IC50 entry (in data set [1] (cho-k1); in data set [2]; in data set [3]; against Vasopressin V1a receptor; against Cytochrome P450 2A6; at Leukotriene C4 synthase) was “Not Active” each time. Further, the half-inhibitory concentration (IC50) result in data set [4] is recorded as “Not Active”. Moreover, the Ki entry (in data set [2]; at Cytochrome P450 2A6; in data set [4]) was “Not Active” throughout.

Take `CCCCNc1ccc(C(=O)OCCN(C)C)cc1` [TETRACAINE]: the IC50 in data set [1] (read-out: IC50) was 3270 nM; in data set [2], “Not Active”; in data set [3], “Not Active”; at Vasopressin V1a receptor, “Not Active”; against Cytochrome P450 2A6 it was “Not Active”; on Leukotriene C4 synthase it was “Not Active”. Moreover, in data set [4], the IC50 entry was “Not Active”. Besides, the Ki in data set [1] (read-out: Ki) was 1710 nM; in data set [2], “Not Active”; at Cytochrome P450 2A6, “Not Active”; in data set [4], “Not Active”.

As to `Cn1c(=O)c2nc[nH]c2n(C)c1=O.O` [THEOPHYLLINE], the IC50 entry (in data set [1] (cho-k1); in data set [2]; in data set [3]; on Vasopressin V1a receptor; at Cytochrome P450 2A6; on Leukotriene C4 synthase) was “Not Active” each time. For the same molecule, the IC50 result in data set [4] is “Not Active”. In addition, the Ki entry (in data set [2]; on Cytochrome P450 2A6; in data set [4]) was “Not Active” throughout.

Consider `CS(=O)(=O)c1ccc([C@@H](O)[C@@H](CO)NC(=O)C(Cl)Cl)cc1` [THIAMPHENICOL], for which the IC50 entry (in data set [1] (cho-k1); in data set [2]; in data set [3]; against Vasopressin V1a receptor; against Cytochrome P450 2A6; at Leukotriene C4 synthase) was “Not Active” in each case. For the same molecule, in data set [4], the IC50 entry is reported as “Not Active”. Further, the Ki entry (in data set [2]; at Cytochrome P450 2A6; in data set [4]) was “Not Active” each time.

For the molecule `CCN(CC)CCNC(=O)c1cc(S(C)(=O)=O)ccc1OC` [TIAPRIDE], the IC50 entry (in data set [1] (cho-k1); in data set [2]; in data set [3]; against Vasopressin V1a receptor; on Cytochrome P450 2A6; against Leukotriene C4 synthase) was “Not Active” each time. The IC50 entry in data set [4] is “Not Active”. Besides, the Ki result (in data set [2]; on Cytochrome P450 2A6; in data set [4]) was “Not Active” in each case.

On to `Clc1ccccc1CN1CCc2sccc2C1` [TICLOPIDINE], for which the IC50 result (in data set [1] (cho-k1); in data set [2]; in data set [3]; against Vasopressin V1a receptor; against Cytochrome P450 2A6; against Leukotriene C4 synthase) was “Not Active” in each case. For the same molecule, the 50% inhibitory concentration (IC50) entry in data set [4] was “Not Active”. In addition, the Ki result (in data set [2]; on Cytochrome P450 2A6; in data set [4]) was “Not Active” each time.

Consider `NC1CCN(c2nc3c(cc2F)c(=O)c(C(=O)O)cn3-c2ccc(F)cc2F)C1` (centres undefined) [TOSUFLOXACIN], for which the IC50 entry (in data set [1] (cho-k1); in data set [2]; in data set [3]; against Vasopressin V1a receptor; against Cytochrome P450 2A6; on Leukotriene C4 synthase) was “Not Active” throughout. Moreover, the IC50 result in data set [4] is “Not Active”. The Ki result (in data set [2]; at Cytochrome P450 2A6; in data set [4]) was “Not Active” each time.

Take `O=C(Nc1ccc(Br)cc1)c1cc(Br)cc(Br)c1O` [TRIBROMSALAN]: the IC50 result (in data set [1] (cho-k1); in data set [2]; in data set [3]; against Vasopressin V1a receptor; at Cytochrome P450 2A6; against Leukotriene C4 synthase) was “Not Active” each time. The IC50 result in data set [4] is recorded as “Not Active”. For the same molecule, the Ki entry (in data set [2]; on Cytochrome P450 2A6; in data set [4]) was “Not Active” in each case.

In the case of `CC(c1cc2ccccc2s1)N(O)C(N)=O` (centres undefined) [ZILEUTON], the IC50 entry (in data set [1] (cho-k1); in data set [2]; in data set [3]; against Vasopressin V1a receptor; against Cytochrome P450 2A6; against Leukotriene C4 synthase) was “Not Active” throughout. In data set [4], the IC50 entry was “Not Active”. Moreover, the inhibition constant Ki entry (in data set [2]; at Cytochrome P450 2A6; in data set [4]) was “Not Active” each time.

MANGANESE CHLORIDE ANHYDROUS: the 50% inhibitory concentration (IC50) result (in data set [1] (cho-k1); in data set [2]; in data set [3]; at Vasopressin V1a receptor; at Cytochrome P450 2A6; at Leukotriene C4 synthase) was “Not Active” in each case. Besides, the IC50 entry in data set [4] is “Not Active”. Moreover, the inhibition constant (Ki) result (in data set [1] (cho-k1); in data set [2]; in data set [3]; at Vasopressin V1a receptor; on Cytochrome P450 2A6; on Leukotriene C4 synthase) was “Not Active” in each case. In data set [4], the Ki entry is recorded as “Not Active”.

For the molecule SODIUM ORTHOVANAD, the IC50 entry (in data set [1] (cho-k1); in data set [2]; in data set [3]; against Vasopressin V1a receptor; on Cytochrome P450 2A6; at Leukotriene C4 synthase) was “Not Active” each time. In data set [4], the half-inhibitory concentration (IC50) entry is on record as “Not Active”. Further, the Ki entry (in data set [1] (cho-k1); in data set [2]; in data set [3]; on Vasopressin V1a receptor; at Cytochrome P450 2A6; on Leukotriene C4 synthase) was “Not Active” throughout. Moreover, the Ki entry in data set [4] is recorded as “Not Active”.
